# Laboratory results as given in article PMC11157767 (Molecular Cancer, 2024).
# Test system: TRIM24-MET-i cells
# Details: GSEA v. DMSO
# Experimental: The number of unique and shared differentially expressed genes between each comparison are shown in parentheses. A linear regression line is depicted along with Pearson’s correlation coefficient (r) and its associated p-value. […] Common negatively enriched genesets between all three comparisons are in bold. c, Heatmaps showing expression of Hallmark_Myc_Target_v1/2 genes for indicated cells and treatment comparisons (TRIM-MET cells were treated in vitro, TFG-MET cells in vivo). Select leading edge genes from GSEA are labeled.
smiles,measurement,value
CNC(=O)c1ccc(-c2cnc3ncc(Cc4ccc5ncccc5c4)n3n2)cc1F [Capmatinib],ES GOBP_NCRNA_METABOLIC_PROCESS,-0.6039
same,ES GOBP_RIBONUCLEOPROTEIN_COMPLEX_BIOGENESIS,-0.6363
same,ES GOBP_RIBOSOME_BIOGENESIS,-0.7035
same,ES GOBP_RRNA_METABOLIC_PROCESS,-0.6814
same,ES GOCC_90S_PRERIBOSOME,-0.8257
same,ES GOCC_NUCLEOLUS,-0.4698
same,ES GOCC_PRERIBOSOME,-0.8127
same,ES GOCC_RIBONUCLEOPROTEIN_COMPLEX,-0.4981
same,ES GOCC_SMALL_SUBUNIT_PROCESSOME,-0.8233
same,ES GOMF_CATALYTIC_ACTIVITY_ACTING_ON_RNA,-0.4916
same,ES GOMF_HYDROLASE_ACTIVITY_ACTING_ON_ACID_ANHYDRIDES,-0.3694
same,ES GOMF_MRNA_BINDING,-0.4686
same,ES GOMF_RIBONUCLEOPROTEIN_COMPLEX_BINDING,-0.568
same,ES GOMF_SNORNA_BINDING,-0.8035
same,ES HALLMARK_ADIPOGENESIS,-0.2484
same,ES HALLMARK_ALLOGRAFT_REJECTION,-0.3747
same,ES HALLMARK_ANDROGEN_RESPONSE,-0.535
same,ES HALLMARK_ANGIOGENESIS,-0.5762
same,ES HALLMARK_APICAL_JUNCTION,-0.2832
same,ES HALLMARK_APICAL_SURFACE,0.5506
same,ES HALLMARK_APOPTOSIS,-0.4219
same,ES HALLMARK_BILE_ACID_METABOLISM,0.4031
same,ES HALLMARK_CHOLESTEROL_HOMEOSTASIS,-0.4011
same,ES HALLMARK_COAGULATION,-0.4551
same,ES HALLMARK_COMPLEMENT,-0.4981
same,ES HALLMARK_DNA_REPAIR,-0.2565
same,ES HALLMARK_E2F_TARGETS,-0.3059
same,ES HALLMARK_EPITHELIAL_MESENCHYMAL_TRANSITION,-0.2783
same,ES HALLMARK_ESTROGEN_RESPONSE_EARLY,-0.385
same,ES HALLMARK_ESTROGEN_RESPONSE_LATE,-0.2661
same,ES HALLMARK_FATTY_ACID_METABOLISM,0.234
same,ES HALLMARK_G2M_CHECKPOINT,-0.3396
same,ES HALLMARK_GLYCOLYSIS,-0.3498
same,ES HALLMARK_HEDGEHOG_SIGNALING,-0.4541
same,ES HALLMARK_HEME_METABOLISM,0.2869
same,ES HALLMARK_HYPOXIA,-0.3596
same,ES HALLMARK_IL2_STAT5_SIGNALING,-0.5259
same,ES HALLMARK_IL6_JAK_STAT3_SIGNALING,-0.2773
same,ES HALLMARK_INFLAMMATORY_RESPONSE,-0.4368
same,ES HALLMARK_INTERFERON_ALPHA_RESPONSE,0.32
same,ES HALLMARK_INTERFERON_GAMMA_RESPONSE,-0.2553
same,ES HALLMARK_KRAS_SIGNALING_DN,0.2731
same,ES HALLMARK_KRAS_SIGNALING_UP,-0.491
same,ES HALLMARK_MITOTIC_SPINDLE,-0.3333
same,ES HALLMARK_MTORC1_SIGNALING,-0.5528
same,ES HALLMARK_MYC_TARGETS_V1,-0.6393
same,ES HALLMARK_MYC_TARGETS_V2,-0.8185
same,ES HALLMARK_MYOGENESIS,-0.217
same,ES HALLMARK_NOTCH_SIGNALING,-0.4058
same,ES HALLMARK_OXIDATIVE_PHOSPHORYLATION,-0.3105
same,ES HALLMARK_P53_PATHWAY,-0.2547
same,ES HALLMARK_PANCREAS_BETA_CELLS,0.3447
same,ES HALLMARK_PEROXISOME,0.2566
same,ES HALLMARK_PI3K_AKT_MTOR_SIGNALING,-0.3267
same,ES HALLMARK_PROTEIN_SECRETION,-0.3279
same,ES HALLMARK_REACTIVE_OXYGEN_SPECIES_PATHWAY,-0.337
same,ES HALLMARK_SPERMATOGENESIS,0.1852
same,ES HALLMARK_TGF_BETA_SIGNALING,-0.5788
same,ES HALLMARK_TNFA_SIGNALING_VIA_NFKB,-0.6019
same,ES HALLMARK_UV_RESPONSE_DN,-0.3389
same,ES HALLMARK_UV_RESPONSE_UP,-0.4065
same,ES HALLMARK_WNT_BETA_CATENIN_SIGNALING,-0.3938
same,ES HALLMARK_XENOBIOTIC_METABOLISM,0.19
same,ES KRIGE_RESPONSE_TO_TOSEDOSTAT_6HR_DN,-0.5928
same,ES KRIGE_RESPONSE_TO_TOSEDOSTAT_24HR_DN,-0.6267
same,ES LEE_BMP2_TARGETS_DN,-0.6601
same,ES PUJANA_CHEK2_PCC_NETWORK,-0.5659
same,ES WEI_MYCN_TARGETS_WITH_E_BOX,-0.6789
same,NES GOBP_NCRNA_METABOLIC_PROCESS,-2.536
same,NES GOBP_NCRNA_PROCESSING,-2.602
same,NES GOBP_RIBONUCLEOPROTEIN_COMPLEX_BIOGENESIS,-2.684
same,NES GOBP_RIBOSOME_BIOGENESIS,-2.8623
same,NES GOBP_RRNA_METABOLIC_PROCESS,-2.7
same,NES GOCC_90S_PRERIBOSOME,-2.336
same,NES GOCC_NUCLEOLUS,-2.057
same,NES GOCC_PRERIBOSOME,-2.789
same,NES GOCC_RIBONUCLEOPROTEIN_COMPLEX,-2.151
same,NES GOCC_SMALL_SUBUNIT_PROCESSOME,-2.456
same,NES GOMF_CATALYTIC_ACTIVITY_ACTING_ON_RNA,-2.047
same,NES GOMF_HYDROLASE_ACTIVITY_ACTING_ON_ACID_ANHYDRIDES,-1.614
same,NES GOMF_MRNA_BINDING,-1.915
same,NES GOMF_RIBONUCLEOPROTEIN_COMPLEX_BINDING,-2.117
same,NES GOMF_SNORNA_BINDING,-2.308
